According to patent publication US20250302817A1, “METHODS FOR TREATING PTEN-MUTANT TUMORS” (Icahn School of Medicine at Mount Sinai, priority 2016, published 2025):
Like-named read-outs stand apart in the source and are kept apart here.

How the values were obtained:
[1] = tested on: gamma-H2AX; assay: Gamma-H2AX measurement of DNA damage by flow cytometry; assay type: cell-based; conditions: 100 μM leflunomide 48 h or A771726
Procedure: (§1) FIG. 4A is a graph showing positively-stained cells labeled with a gamma-H2AX antibody; cells were analyzed by flow cytometry (Student's t-test, *p<0.05, n=3). […] The mean fluorescence intensity (MFI) was determined using flow cytometry (Student's t-test, *p<0.01, n=3). FIG. 4C is a series of representative photographs showing MEFs treated with 150 μM A771726 for 24 h and labeled with EdU and gamma-H2AX. Left: representative confocal microscopy images. Right: quantified EdU and gamma-H2AX colocalized foci (Student's t-test, *p<0.05, n=3). […] Left: representative confocal microscopy images. Right: quantification of the number of foci per cell (Student's t-test, p>0.05, n=6). FIG. 4E is a graph showing the percentage of cells treated with 150 μM A771726 for times indicated and labeled with antibodies to RPA and gamma-H2AX positively staining for RPA alone or both RPA and gamma-H2AX; cells were analyzed by flow cytometry (Student's t-test, *p<0.05, n=4). […] FIGS. 4G and 4H are graphs quantifying the number of chromosomal breaks and multiradial formations per haploid genome (Student's t-test, *p-values on figure, cells scored/replicate>100). […]
(§2) FIG. 10D is a bar graph showing a quantitative depiction of the percent cell area with EdU-staining from images in FIG. 4D, used to normalize foci to cell size (Student's t-test, p>0.05, not significant, n=6). […]

[2] = tested on: ATR phosphorylation of CHK1 at serine 345; assay: Immunoblot of pChk1; assay type: cell-based; conditions: 150 μM A771726; Pten WT versus Pten^−/− cells
[3] = tested on: MCCL-357 and MCCL-278 cells; assay: Karyotyping (chromosomal analysis); assay type: cell-based, mouse; conditions: A771726, by 48 h; MCCL-357 compared to MCCL-278
Procedure: as §1, §2

[4] = cited from earlier work
[5] = cited from earlier work; remark: listed apart in the source
[6] = target: T1, CYP2C8 (Homo sapiens, UniProt P10632); conditions: repeated doses of teriflunomide, single dose of 0.25 mg repaglinide; cited from earlier work
T1 construct: host or cells: human subjects, in vivo

[7] = tested on: CYP1A2; conditions: repeated doses of teriflunomide; cited from earlier work
[8] = target: T2, organic anion transporter 3 (OAT3) (Homo sapiens, UniProt Q8TCC7); conditions: repeated doses of teriflunomide; cited from earlier work
T2 construct: host or cells: human subjects, in vivo

[9] = target: T3, CYP3A4 (Homo sapiens, UniProt P08684); conditions: in vivo; cited from earlier work
T3 construct: midazolam (a CYP3A4 substrate); host or cells: human subjects, in vivo

[10] = target: T4, CYP2C9 (Homo sapiens, UniProt P11712); conditions: in vivo; cited from earlier work
T4 construct: S-warfarin (a CYP2C9 substrate); host or cells: human subjects, in vivo

[11] = in vivo; cited from earlier work
[12] = multiple sclerosis patients, cited from earlier work; for Alopecia / Arthralgia / Diarrhea / Headache / Nausea / Neutropenia / Parathesia: all grades

T1 sequence (P10632 whole entry): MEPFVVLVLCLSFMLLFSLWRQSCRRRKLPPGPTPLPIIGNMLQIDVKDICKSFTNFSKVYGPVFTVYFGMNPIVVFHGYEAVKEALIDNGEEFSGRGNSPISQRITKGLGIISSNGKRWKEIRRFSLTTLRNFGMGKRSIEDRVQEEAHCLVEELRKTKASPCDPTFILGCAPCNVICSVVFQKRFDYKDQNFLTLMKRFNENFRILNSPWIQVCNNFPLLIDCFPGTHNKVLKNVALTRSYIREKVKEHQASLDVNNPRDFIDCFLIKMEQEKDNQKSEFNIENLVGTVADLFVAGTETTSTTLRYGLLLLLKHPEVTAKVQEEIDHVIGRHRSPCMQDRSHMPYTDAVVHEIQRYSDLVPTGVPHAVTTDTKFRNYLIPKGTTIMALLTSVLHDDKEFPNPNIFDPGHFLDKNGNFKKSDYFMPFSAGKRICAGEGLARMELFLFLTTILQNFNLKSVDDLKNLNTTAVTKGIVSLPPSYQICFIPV
T2 sequence (Q8TCC7 whole entry): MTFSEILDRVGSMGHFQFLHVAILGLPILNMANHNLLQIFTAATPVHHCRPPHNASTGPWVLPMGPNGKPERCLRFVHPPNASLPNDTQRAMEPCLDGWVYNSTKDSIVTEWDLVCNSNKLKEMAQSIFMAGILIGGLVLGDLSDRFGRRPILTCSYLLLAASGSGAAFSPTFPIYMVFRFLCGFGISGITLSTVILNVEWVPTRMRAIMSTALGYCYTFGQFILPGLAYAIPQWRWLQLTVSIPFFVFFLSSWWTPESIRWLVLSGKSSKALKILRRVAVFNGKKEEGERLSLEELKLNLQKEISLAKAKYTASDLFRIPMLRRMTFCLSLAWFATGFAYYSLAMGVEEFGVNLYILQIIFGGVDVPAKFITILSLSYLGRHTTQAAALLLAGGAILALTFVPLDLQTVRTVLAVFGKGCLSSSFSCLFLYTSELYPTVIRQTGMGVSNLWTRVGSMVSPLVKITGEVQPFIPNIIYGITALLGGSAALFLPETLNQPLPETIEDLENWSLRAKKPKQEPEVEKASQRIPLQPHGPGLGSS
T4 sequence (P11712 whole entry): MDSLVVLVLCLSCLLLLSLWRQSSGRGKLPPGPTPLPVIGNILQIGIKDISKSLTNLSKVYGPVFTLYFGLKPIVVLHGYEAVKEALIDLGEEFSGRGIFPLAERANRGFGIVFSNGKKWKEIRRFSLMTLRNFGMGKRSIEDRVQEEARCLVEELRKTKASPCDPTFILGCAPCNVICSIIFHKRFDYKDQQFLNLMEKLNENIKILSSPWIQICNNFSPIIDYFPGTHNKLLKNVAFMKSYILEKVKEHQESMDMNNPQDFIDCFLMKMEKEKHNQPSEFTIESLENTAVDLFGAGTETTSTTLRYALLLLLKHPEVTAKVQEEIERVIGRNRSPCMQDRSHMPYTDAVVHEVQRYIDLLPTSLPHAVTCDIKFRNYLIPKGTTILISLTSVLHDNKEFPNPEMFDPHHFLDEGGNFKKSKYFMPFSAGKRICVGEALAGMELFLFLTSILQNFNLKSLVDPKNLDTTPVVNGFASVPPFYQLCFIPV
T3 sequence (P08684 whole entry): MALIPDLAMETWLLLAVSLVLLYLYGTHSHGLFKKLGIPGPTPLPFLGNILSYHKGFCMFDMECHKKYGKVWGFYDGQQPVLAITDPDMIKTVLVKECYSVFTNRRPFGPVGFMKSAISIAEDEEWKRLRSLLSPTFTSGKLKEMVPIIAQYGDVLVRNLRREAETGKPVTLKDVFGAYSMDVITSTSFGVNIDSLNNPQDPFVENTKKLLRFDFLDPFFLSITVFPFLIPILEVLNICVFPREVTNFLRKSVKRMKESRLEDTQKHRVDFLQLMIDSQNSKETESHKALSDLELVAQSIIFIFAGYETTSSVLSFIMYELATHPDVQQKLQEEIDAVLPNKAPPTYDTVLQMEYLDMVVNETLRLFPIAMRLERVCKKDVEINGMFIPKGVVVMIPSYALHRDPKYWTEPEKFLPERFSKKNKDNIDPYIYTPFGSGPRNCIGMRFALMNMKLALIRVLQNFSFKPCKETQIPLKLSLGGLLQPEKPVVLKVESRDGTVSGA

Structure (SMILES): C/C(O)=C(\C#N)C(=O)Nc1ccc(C(F)(F)F)cc1 [teriflunomide, (Z)-2-Cyano-3-hydroxy-but-2-enoic acid-(4trifluoromethylphenyl)-amide]
- DNA damage (gamma-H2AX) in PTEN-deficient versus WT cells [1]: augmented DNA damage to a significantly greater degree in PTEN-deficient cells
- ATR phosphorylation of CHK1 at serine 345 [2]: triggered ATR phosphorylation of CHK1 at serine 345 in Pten WT, but to a much lesser extent in Pten^−/− cells
- chromosome gaps, breaks, and multiradial formations [3]: greater number of chromosome gaps, breaks, and multiradial formations in MCCL-357 cells
- additional dose eliminated (mostly in feces) ([4]; after accelerated elimination procedure with cholestyramine): 23.1%
- decrease in teriflunomide plasma concentration ([4]; end of 11 days of cholestyramine or activated charcoal): more than 98%
- free fraction of teriflunomide ([5]; patients with chronic renal insufficiency on CAPD or hemodialysis): almost doubled
- impact of CAPD or hemodialysis on circulating levels of teriflunomide ([5]; single dose, patients (n=6) with chronic renal insufficiency): neither had a significant impact
- increase in mean repaglinide AUC [6]: 2.4 fold
- increase in mean repaglinide Cmax [6]: 1.7 fold
- decrease in mean AUC of caffeine [7]: 55%
- decrease in mean Cmax of caffeine [7]: 18%
- increase in mean cefaclor AUC [8]: 1.54 fold
- increase in mean cefaclor Cmax [8]: 1.43 fold
- effect on pharmacokinetics of midazolam (a CYP3A4 substrate) [9]: does not affect the pharmacokinetics
- effect on pharmacokinetics of S-warfarin (a CYP2C9 substrate) [10]: does not affect the pharmacokinetics
- effect of rifampin on the pharmacokinetics of teriflunomide [11]: does not affect the pharmacokinetics
- Alopecia ([12]; 7 mg/day (n = 1045)): 10%
- Arthralgia ([12]; 7 mg/day (n = 1045)): 8%
- Diarrhea ([12]; 7 mg/day (n = 1045)): 13%
- Headache ([12]; 7 mg/day (n = 1045)): 18%
- Nausea ([12]; 7 mg/day (n = 1045)): 8%
- Neutropenia ([12]; 7 mg/day (n = 1045)): 4%
- Parathesia ([12]; 7 mg/day (n = 1045)): 8%
- Elevated ALT, >3 × upper limit of normal ([12]; 7 mg/day (n = 1045)): 6%
- Elevated ALT, serious adverse events leading to treatment withdrawal ([12]; 7 mg/day (n = 1045)): 3%
- Hypertension (new onset) ([12]; 7 mg/day (n = 1045)): 3%
- Peripheral Neuropathy, serious adverse events leading to treatment withdrawal ([12]; 7 mg/day (n = 1045)): 0.3%
- Serious Infection ([12]; 7 mg/day (n = 1045)): 2%
- Alopecia ([12]; 14 mg/day (n = 1002)): 13%
- Arthralgia ([12]; 14 mg/day (n = 1002)): 6%
- Diarrhea ([12]; 14 mg/day (n = 1002)): 14%
- Headache ([12]; 14 mg/day (n = 1002)): 16%
- Nausea ([12]; 14 mg/day (n = 1002)): 11%
- Neutropenia ([12]; 14 mg/day (n = 1002)): 6%
- Parathesia ([12]; 14 mg/day (n = 1002)): 9%
- Elevated ALT, >3 × upper limit of normal ([12]; 14 mg/day (n = 1002)): 6%
- Elevated ALT, serious adverse events leading to treatment withdrawal ([12]; 14 mg/day (n = 1002)): 3%
- Hypertension (new onset) ([12]; 14 mg/day (n = 1002)): 4%
- Peripheral Neuropathy, serious adverse events leading to treatment withdrawal ([12]; 14 mg/day (n = 1002)): 0.5%
- Serious Infection ([12]; 14 mg/day (n = 1002)): 3%
